Measured values: patent publication US20260285853A1, “COMPOUNDS AND METHODS FOR MODULATING SPLICING” (REMIX THERAPEUTICS INC., priority 2023, published 2026)
Like-named read-outs stand apart in the source and are kept apart here.

What was measured:
Type in all cases: cell-based
HTT mRNA [1] = assay: Splicing RT-qPCR assay (THP), Table 2A
MYB mRNA [2] = assay: Splicing RT-qPCR assay (THP), Table 2A
HTT mRNA [3] = assay: Gene panel canonical junction qPCR assay, decrease in CJ mRNA, Table 3
Procedure: (§1) Compounds described herein were used to modulate RNA transcript abundance in cells. The expression of a target mRNA was measured by detecting the formation of an exon-exon junction in the canonical transcript (CJ). A compound mediated exon-inclusion event was detected by observing an increase in formation of a new junction with an alternative exon (AJ). Real-time qPCR assays were used to detect these splicing switches and interrogate the potency of various compounds towards different target genes. A high-throughput real time quantitative PCR (RT-qPCR) assay was developed to measure these two isoforms of the mRNA (CJ and AJ) for exemplary genes, such as HTT, SMN2, and MYB, together with a control housekeeping gene, GAPDH or GUSB or PPIA, used for normalization. Briefly, the A673 or K562 cell line was treated with various compounds described herein (e.g., compounds of Formula (I)). After treatment, the levels of the HTT, MYB, or SMN2 mRNA targets were determined from each sample of cell lysate by cDNA synthesis followed by qPCR.
(§2) The A673 cell line was cultured in DMEM with 10% FBS. Cells were diluted with full growth media and plated in a 96-well plate (15,000 cells in 100 ul media per well). The plate was incubated at 37° C. with 5% CO2 for 24 hours to allow cells to adhere. An 11-point 3-fold serial dilution of the compounds was made in DMSO then diluted in media in an intermediate plate. Compounds were transferred from the intermediate plate to the cell plate with the top dose at a final concentration of 10 uM in the well. Final DMSO concentration was kept at or below 0.25%. The cell plate was returned to the incubator at 37° C. with 5% CO2 for an additional 24 hours.
(§3) The K562 cell line was cultured in IMDM with 10% FBS. For K562, cells were diluted with full growth media and plated in either a 96-well plate (50,000 cells in 50 uL media per well) or a 384-well plate (8,000-40,000 cells in 45 uL media per well). An 11-point 3-fold serial dilution of the compounds were made in DMSO then diluted in media in an intermediate plate. Compound was transferred from the intermediate plate to the cell plate with the top dose at a final concentration of 10 uM in the well. Final DMSO concentration was kept at or below 0.25%. Final volume was 100 uL for 96-well plate and 50 uL for 384-well plate. The cell plate was then placed in an incubator at 37° C. with 5% CO2 for 24 hours.
(§4) The data analysis was performed by first determining the ΔCt vs the housekeeper gene. This ΔCt was then normalized against the DMSO control (ΔΔCt) and converted to RQ (relative quantification) using the 2^(−ΔΔCt) equation. The RQ were then converted to a percentage response by arbitrarily setting an assay window of 3.5 and 4.0 ΔCt for HTT-CJ and MYB-CJ respectively and an assay window of 9 and 3 ΔCt for HTT-AJ and MYB-AJ in 96 well format (50,000 K562 cells/well and 15,000 A673 cells per well) and an assay window of 3 and 4 ΔCt for HTT-CJ and MYB-CJ respectively and an assay window of 5 and 3 ΔCt for HTT-AJ and MYB-AJ respectively in 384 well format (8,000 K562 cells/well example). […] The percentage response was then fitted to the 4 parametric logistic equation to evaluate the concentration dependence of compound treatment. The increase in AJ mRNA is reported as AC50 (compound concentration having 50% response in AJ increase) while the decrease in CJ mRNA levels is reported as IC50 (compound concentration having 50% response in CJ decrease).
(§5) Additional studies were carried out for a larger panel of genes using the protocol provided above. The junction between flanking upstream and downstream exons was used to design canonical junction qPCR assays. At least one of the forward primer, reverse primer or the CY5-labeled 5′ nuclease probe (with 3′ quencher such as ZEN/Iowa Black FQ) was designed to overlap with the exon junction to capture the CJ mRNA transcript. […]

MYB mRNA [4] = assay: as above
Procedure: as §1, §2, §3, §4, §5

[5] = test system: SH-SY5Y (human neuroblastoma) cells; assay: Cell viability, Cell Titer Glo 2.0 assay; conditions: read-out: Viability SHSY5Y.3 GI50
Procedure: Compounds described herein were screened for toxicity in K562 (human chronic myelogenous leukemia) and SH-SY5Y (human neuroblastoma) cells using a Cell Titer Glo 2.0 assay.
• Promega CellTiter-Glo® 2.0 Cell Viability Assay (cat #G9241) • Corning 384-well TC-treated microplates (cat #3570)
Cells were plated at 500 cells/well (K562 cells) in 45 μL of IMDM supplemented with 10% FBS in a 384-well opaque plate. Wells containing only medium were used as a blank control. Test compounds (e.g., compounds of Formula (I) or (II) were first serially diluted in DMSO then diluted 1:100 with IMDM+10% FBS. The final concentration of DMSO was 0.1% in each well. The cells were incubated for 72 hours at 37° C. and 5% CO2 before assaying with Cell Titer Glo 2.0 reagent.

[6] = Table 2A (THP), AJ mRNA increase, read-out: HTT AJ (increase in alternative junction mRNA, AC50)
[7] = Table 2A (THP), CJ mRNA decrease, read-out: HTT CJ (decrease in canonical junction mRNA, IC50)
[8] = Table 2A (THP), AJ mRNA increase, read-out: MYB AJ (increase in alternative junction mRNA, AC50)
[9] = Table 2A (THP), CJ mRNA decrease, read-out: MYB CJ (decrease in canonical junction mRNA, IC50)
[10] = decrease in canonical junction (CJ) mRNA, gene panel qPCR, Table 3
[11] = Table 2A, THP, HTT alternative junction (AJ) mRNA, read-out: HTT AJ (AC50, increase in alternative junction mRNA)
[12] = Table 2A, THP, HTT canonical junction (CJ) mRNA, read-out: HTT CJ (IC50, decrease in canonical junction mRNA)
[13] = Table 2A, THP, MYB alternative junction (AJ) mRNA, read-out: MYB AJ (AC50, increase in alternative junction mRNA)
[14] = Table 2A, THP, MYB canonical junction (CJ) mRNA, read-out: MYB CJ (IC50, decrease in canonical junction mRNA)
[15] = decrease in CJ mRNA levels, canonical junction qPCR, gene panel

IC50 (HTT mRNA [1]; [7]) [µM]	IC50 (MYB mRNA [2]; [9]) [µM]	IC50 (HTT mRNA [3]; [10]) [µM]	IC50 (MYB mRNA [4]; [10]) [µM]	GI50 [5] [µM]	IC50 (HTT mRNA [1]; [12]) [µM]	IC50 (MYB mRNA [2]; [14]) [µM]	IC50 (HTT mRNA [3]; [15]) [µM]	IC50 (MYB mRNA [4]; [15]) [µM]	SMILES	AC50 (HTT mRNA [1]; [6]) [µM]	AC50 (MYB mRNA [2]; [8]) [µM]	AC50 (HTT mRNA [1]; [11]) [µM]	AC50 (MYB mRNA [2]; [13]) [µM]
				1 to 10	> 10	> 10	> 10	> 10	COc1nc2c(C(=O)Nc3ccc4c(c3)CCCO4)ccc(N3C[C@H](C)N[C@@H](C)C3)c2s1 [Compound 760]			> 10	> 10
				0.1 to 1	0.1 to 1	< 0.1	0.1 to 1	< 0.1	COc1cc2c(N3CCC(NC4CC4)CC3)ccc(C(=O)Nc3cc(CO)c4nn(C)cc4c3)n2n1 [Compound 847]			0.1 to 1	< 0.1
				1 to 10	> 10	0.1 to 1	> 10	0.1 to 1	COc1nc2c(C(=O)Nc3cc(F)c4nn(C)cc4c3)ccc(N3CCN[C@@H](C(C)(C)C)C3)c2s1 [Compound 742, 7-[(3S)-3-tert-butylpiperazin-1-yl]-N-(7-fluoro-2-methyl-indazol-5-yl)-2-methoxy-1,3-benzothiazole-4-carboxamide]			> 10	0.1 to 1
				> 10	> 10	1 to 10	> 10	1 to 10	Cn1cc2cc(NC(=O)c3ccc(N4CCC(NC5CC5)CC4)c4cn(C)nc34)cc(CNS(C)(=O)=O)c2n1 [Compound 735, 4-(4-(cyclopropylamino)piperidin-1-yl)-2-methyl-N-(2-methyl-7-(methylsulfonamidomethyl)-2H-indazol-5-yl)-2H-indazole-7-carboxamide 2,2,2-trifluoroacetate]			> 10	1 to 10

The remaining lines, values behind:

SMILES	IC50 (HTT mRNA [1]; [7]) [µM]	IC50 (MYB mRNA [2]; [9]) [µM]	IC50 (HTT mRNA [3]; [10]) [µM]	IC50 (MYB mRNA [4]; [10]) [µM]	GI50 [5] [µM]	IC50 (HTT mRNA [1]; [12]) [µM]	IC50 (MYB mRNA [2]; [14]) [µM]	IC50 (HTT mRNA [3]; [15]) [µM]	IC50 (MYB mRNA [4]; [15]) [µM]	AC50 (HTT mRNA [1]; [6]) [µM]	AC50 (MYB mRNA [2]; [8]) [µM]	AC50 (HTT mRNA [1]; [11]) [µM]	AC50 (MYB mRNA [2]; [13]) [µM]
CCNC1CCN(c2cc(Cl)c(C(=O)Nc3cn4cc(C)nc4c(F)c3OC)c3nn(C)cc23)CC1 [Compound 335, 6-chloro-4-[4-(ethylamino)-1-piperidyl]-N-(8-fluoro-7-methoxy-2-methyl-imidazo[1,2-a]pyridin-6-yl)-2-methyl-indazole-7-carboxamide]	< 0.1	< 0.1	< 0.1	< 0.1	< 0.1					< 0.1	< 0.1		
Cc1cn2cc(NC(=O)c3ccc(N4CC5(CNC5)C4)c4cn(C)nc34)nc2c(C)n1 [Compound 496]	> 10	1 to 10	> 10	1 to 10	> 10					> 10	0.1 to 1		
CCNC1CCN(c2ccc(C(=O)Nc3cc(OC)c4nc(C)sc4c3)c3nn(C)cc23)CC1 [Compound 385, 4-[4-(ethylamino)-1-piperidyl]-N-(4-methoxy-2-methyl-1,3-benzothiazol-6-yl)-2-methyl-indazole-7-carboxamide 2,2,2-trifluoroacetate]	> 10	> 10	> 10	> 10	1 to 10					1 to 10	0.1 to 1		
CCNC1CCN(c2ccc(C(=O)Nc3cn4cc(C)nc(C)c4n3)c3nc(OC)sc23)CC1 [Compound 670, N-(6,8-dimethyl-imidazo[1,2-a]-pyrazin-2-yl)-7-[4-(ethylamino)-1-piperidyl]-2-methoxy-1,3-benzothiazole-4-carboxamide]					> 10	1 to 10	> 10	1 to 10	> 10			> 10	> 10
Cn1cc2cc(NC(=O)c3ccc(N4CCC(NC5CC5)CC4)c4cn(C)nc34)c(C(F)(F)F)cc2n1 [Compound 476, 4-[4-(cyclopropyl-amino)-1-piperidyl]-2-methyl-N-[2-methyl-6-(trifluoromethyl)-indazol-5-yl]indazole-7-carboxamide]	> 10	1 to 10	> 10	1 to 10	> 10					> 10	1 to 10		
COc1c(NC(=O)c2c(F)cc(N3CCC(NC4CC4)CC3)c3cn(C)nc23)cn2cc(C)nc2c1C [Compound 397, 4-[4-(cyclopropylamino)-1-piperidy1]-6-fluoro-N-(7-methoxy-2,8-dimethyl-imidazo[1,2-a]pyridin-6-y1)-2-methyl-indazole-7-carboxamide]	> 10	1 to 10	> 10	1 to 10	1 to 10					> 10	1 to 10		
CCNC1CC2(C1)CN(c1ccc(C(=O)Nc3cc4cn(C)nc4cc3OC)c3nn(C)cc13)C2 [Compound 578]	0.1 to 1	0.1 to 1	0.1 to 1	0.1 to 1	0.1 to 1					0.1 to 1	0.1 to 1		
Cc1cn2cc(NC(=O)c3ccc(N4CC5CCC(C4)N5)c4cn(C)nc34)nc2c(CNS(C)(=O)=O)n1 [Compound 885, 4-(3,8-diazabicyclo[3.2.1]octan-3-yl)-N-[8-(methanesulfonamidomethyl)-6-methyl-imidazo[1,2-a]pyrazin-2-yl]-2-methyl-indazole-7-carboxamide]					1 to 10	1 to 10	1 to 10	1 to 10	1 to 10			1 to 10	1 to 10
CCNC1CCN(c2ccc(C(=O)Nc3cc(Oc4ccc(Cl)cc4)c4nc(C)cn4c3)c3nn(C)cc23)CC1 [Compound 325, N-[8-(4-chloro-phenoxy)-2-methylimidazo[1,2-a]-pyridin-6-yl]-4-[4-(ethylamino)-1-piperidyl]-2-methyl-indazole-7-carboxamide]	1 to 10	0.1 to 1	1 to 10	0.1 to 1	0.1 to 1					1 to 10	< 0.1		
